# Assay results reported in ChEMBL document CHEMBL3112450, “Synthesis and in vitro antitumor evaluation of primary amine substituted quinazoline linked benzimidazole” (Bioorg Med Chem Lett, 2014).
# Key:
# Type in all cases: functional
# [1] = test system: OVCAR-8; assay: Cytotoxicity against human OVCAR8 cells after 48 hrs by SRB assay; details: OVCAR-8, 48 h
# [2] = test system: HT-29; assay: Cytotoxicity against human HT-29 cells assessed as cell growth at 10^-8 M after 48 hrs by SRB assay; details: HT-29, 48 h, read-out: Activity
# [3] = test system: HCT-116; assay: Cytotoxicity against human HCT116 cells assessed as cell growth at 10^-7 M after 48 hrs by SRB assay; details: HCT-116, 48 h, read-out: Activity
# [4] = test system: KM12; assay: Cytotoxicity against human KM12 cells assessed as cell growth at 10^-7 M after 48 hrs by SRB assay; details: KM12, 48 h, read-out: Activity
# [5] = test system: LOX IMVI; assay: Cytotoxicity against human LOXIMVI cells assessed as cell growth at 10^-4 M after 48 hrs by SRB assay; details: read-out: Activity
# [6] = test system: OVCAR-8; assay: Cytotoxicity against human OVCAR8 cells assessed as cell growth at 10^-7 M after 48 hrs by SRB assay; details: OVCAR-8, 48 h, read-out: Activity
# [7] = test system: NCI-H23; assay: Cytotoxicity against human NCI-H23 cells assessed as cell growth at 10^-6 M after 48 hrs by SRB assay; details: NCI-H23, 48 h, read-out: Activity
# [8] = test system: RPMI-8226; assay: Cytotoxicity against human RPMI8226 cells after 48 hrs by SRB assay; details: RPMI-8226, 48 h
# [9] = test system: NCI-H322M; assay: Cytotoxicity against human NCI-H322M cells after 48 hrs by SRB assay
# [10] = test system: BT-549; assay: Cytotoxicity against human BT549 cells assessed as cell growth at 10^-4 M after 48 hrs by SRB assay; details: BT-549, 48 h, read-out: Activity
# [11] = test system: A498; assay: Cytotoxicity against human A498 cells assessed as growth inhibition at 10 uM after 48 hrs by SRB assay; details: A498, 48 h, read-out: GI
# [12] = test system: NCI-H322M; assay: Cytotoxicity against human NCI-H322M cells assessed as cell growth at 10^-8 M after 48 hrs by SRB assay; details: read-out: Activity
# [13] = test system: KM12; assay: Cytotoxicity against human KM12 cells assessed as cell growth at 10^-4 M after 48 hrs by SRB assay; details: KM12, 48 h, read-out: Activity
# [14] = test system: SN12C; assay: Cytotoxicity against human SN12C cells after 48 hrs by SRB assay
# [15] = test system: HCC 2998; assay: Cytotoxicity against human HCC2998 cells assessed as cell growth at 10^-7 M after 48 hrs by SRB assay; details: HCC 2998, 48 h, read-out: Activity
# [16] = test system: MDA-MB-435; assay: Cytotoxicity against human MDA-MB-435 cells assessed as cell growth at 10^-8 M after 48 hrs by SRB assay; details: MDA-MB-435, 48 h, read-out: Activity
# [17] = test system: MDA-MB-468; assay: Cytotoxicity against human MDA-MB-468 cells after 48 hrs by SRB assay; details: MDA-MB-468, 48 h
# [18] = test system: UACC-62; assay: Cytotoxicity against human UACC62 cells assessed as cell growth at 10^-7 M after 48 hrs by SRB assay; details: UACC-62, 48 h, read-out: Activity
# [19] = test system: DU-145; assay: Cytotoxicity against human DU145 cells after 48 hrs by SRB assay; details: DU-145, 48 h
# [20] = test system: MDA-MB-231; assay: Cytotoxicity against human MDA-MB-231 cells assessed as cell growth at 10^-8 M after 48 hrs by SRB assay; details: MDA-MB-231, 48 h, read-out: Activity
# [21] = test system: SR; assay: Cytotoxicity against human SR cells assessed as cell growth at 10^-7 M after 48 hrs by SRB assay; details: read-out: Activity
# [22] = test system: ACHN; assay: Cytotoxicity against human ACHN cells assessed as cell growth at 10^-4 M after 48 hrs by SRB assay; details: read-out: Activity
# [23] = test system: IGROV-1; assay: Cytotoxicity against human IGROV1 cells after 48 hrs by SRB assay; details: IGROV-1, 48 h
# [24] = test system: IGROV-1; assay: Cytotoxicity against human IGROV1 cells assessed as cell growth at 10^-6 M after 48 hrs by SRB assay; details: IGROV-1, 48 h, read-out: Activity
# [25] = test system: NCI-H226; assay: Cytotoxicity against human NCI-H226 cells assessed as cell growth at 10^-6 M after 48 hrs by SRB assay; details: NCI-H226, 48 h, read-out: Activity
# [26] = test system: SK-OV-3; assay: Cytotoxicity against human SKOV3 cells after 48 hrs by SRB assay; details: SK-OV-3, 48 h
# [27] = Cytotoxicity against human OVCAR4 cells after 48 hrs by SRB assay; details: OVCAR-4, 48 h
# [28] = test system: K562; assay: Cytotoxicity against human K562 cells assessed as cell growth at 10^-7 M after 48 hrs by SRB assay; details: K562, 48 h, read-out: Activity
# [29] = test system: NCI-H226; assay: Cytotoxicity against human NCI-H226 cells assessed as cell growth at 10^-8 M after 48 hrs by SRB assay; details: NCI-H226, 48 h, read-out: Activity
# [30] = test system: PC-3; assay: Cytotoxicity against human PC3 cells assessed as cell growth at 10^-7 M after 48 hrs by SRB assay; details: PC-3, 48 h, read-out: Activity
# [31] = test system: PC-3; assay: Cytotoxicity against human PC3 cells after 48 hrs by SRB assay; details: PC-3, 48 h
# [32] = test system: COLO 205; assay: Cytotoxicity against human COLO205 cells assessed as cell growth at 10^-7 M after 48 hrs by SRB assay; details: COLO 205, 48 h, read-out: Activity
# [33] = test system: MCF7; assay: Cytotoxicity against human MCF7 cells assessed as cell growth at 10^-7 M after 48 hrs by SRB assay; details: MCF7, 48 h, read-out: Activity
# [34] = test system: CCRF-CEM; assay: Cytotoxicity against human CCRF-CEM cells after 48 hrs by SRB assay
# [35] = test system: NCI-H226; assay: Cytotoxicity against human NCI-H226 cells after 48 hrs by SRB assay; details: NCI-H226, 48 h
# [36] = test system: TK-10; assay: Cytotoxicity against human TK10 cells assessed as cell growth at 10^-8 M after 48 hrs by SRB assay; details: TK-10, 48 h, read-out: Activity
# [37] = test system: KM12; assay: Cytotoxicity against human KM12 cells after 48 hrs by SRB assay; details: KM12, 48 h
# [38] = test system: DU-145; assay: Cytotoxicity against human DU145 cells assessed as cell growth at 10^-7 M after 48 hrs by SRB assay; details: DU-145, 48 h, read-out: Activity
smiles,measurement,setting,value
C=CCn1c(C)nc2ccc(Nc3nc(Nc4ccc(F)cc4)nc4ccccc34)cc21,GI50,[1],3.05 µM
same,LC50,[1],> 100 µM
same,TGI,[1],13.6 µM
same,growth at 0.01 µM,[2],100%
same,growth at 0.1 µM,[3],97%
same,growth at 0.1 µM,[4],94%
same,growth at 100 µM,[5],-42%
same,growth at 0.1 µM,[6],94%
same,growth at 1 µM,[7],88%
same,GI50,[8],1.85 µM
same,LC50,[8],> 100 µM
same,TGI,[8],4.57 µM
same,GI50,[9],6.16 µM
same,LC50,[9],55.1 µM
same,TGI,[9],21.5 µM
same,growth at 100 µM,[10],-61%
same,inhibition of growth at 10 µM,[11],40%
same,growth at 0.01 µM,[12],87%
same,growth at 100 µM,[13],-79%
same,GI50,[14],2.78 µM
same,LC50,[14],> 100 µM
same,TGI,[14],15.1 µM
same,growth at 0.1 µM,[15],97%
same,growth at 0.01 µM,[16],97%
same,GI50,[17],1.23 µM
same,TGI,[17],2.6 µM
same,growth at 0.1 µM,[18],95%
same,GI50,[19],8.63 µM
same,LC50 (50% lethal concentration),[19],54.7 µM
same,TGI,[19],22.8 µM
same,growth at 0.01 µM,[20],99%
same,growth at 0.1 µM,[21],98%
same,growth at 100 µM,[22],-73%
same,GI50,[23],6.09 µM
same,LC50,[23],98.7 µM
same,TGI,[23],27.2 µM
same,growth at 1 µM,[24],91%
same,growth at 1 µM,[25],87%
same,GI50,[26],1.93 µM
same,TGI,[26],3.74 µM
same,GI50,[27],2.06 µM
same,LC50,[27],> 100 µM
same,TGI,[27],5.81 µM
same,growth at 0.1 µM,[28],103%
same,growth at 0.01 µM,[29],92%
same,growth at 0.1 µM,[30],92%
same,GI50,[31],3.14 µM
same,TGI,[31],14.7 µM
same,CC50,[31]; read-out: LC50 (the source's name),49.7 µM
same,growth at 0.1 µM,[32],103%
same,growth at 0.1 µM,[33],87%
same,GI50,[34],3.01 µM
same,LC50,[34],> 100 µM
same,TGI,[34],11.7 µM
same,GI50,[35],1.78 µM
same,TGI,[35],3.85 µM
same,growth at 0.01 µM,[36],99%
same,GI50,[37],4.07 µM
same,LC50 (concentration killing 50% of cells),[37],51.8 µM
same,TGI,[37],16.4 µM
same,growth at 0.1 µM,[38],98%
C=CCn1c(C)nc2cc(Nc3nc(NCCO)nc4ccccc34)ccc21,inhibition of growth at 10 µM,[11],40%
C=CCn1c(C)nc2ccc(Nc3nc(Sc4ccc(N)cc4)nc4ccccc34)cc21,inhibition of growth at 10 µM,[11],50%
